This note sets out measurements from patent publication US12252524B2, “GIP/GLP1 co-agonist compounds” (Eli Lilly and Company, priority 2018, dated 2025).

In experiment [1] the target is T1, human GLP-1R (Homo sapiens, UniProt P43220). As to the kind of experiment: GLP-1R CHO cell β-arrestin recruitment assay. It counts as cell-based. Also on record: host or cells: CHO-K1 PathHunter cells, assay-ready frozen. To be noted: for hGLP1R B-Arrestin2 % Top: normalized to GLP-1 maximum control. The method in brief: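 Peptide-induced β-arrestin-2 recruitment measured by enzyme-fragment complementation luminescence after 90 min at 37 °C plus 60 min detection at RT.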
(In general: Recruitment of arrestin is a read-out of receptor activation apart from second messengers.)

In experiment [2] the target is T2, gastric inhibitory peptide receptor (GIPR) (Homo sapiens, UniProt P48546).
T2 sequence (P48546 22-466): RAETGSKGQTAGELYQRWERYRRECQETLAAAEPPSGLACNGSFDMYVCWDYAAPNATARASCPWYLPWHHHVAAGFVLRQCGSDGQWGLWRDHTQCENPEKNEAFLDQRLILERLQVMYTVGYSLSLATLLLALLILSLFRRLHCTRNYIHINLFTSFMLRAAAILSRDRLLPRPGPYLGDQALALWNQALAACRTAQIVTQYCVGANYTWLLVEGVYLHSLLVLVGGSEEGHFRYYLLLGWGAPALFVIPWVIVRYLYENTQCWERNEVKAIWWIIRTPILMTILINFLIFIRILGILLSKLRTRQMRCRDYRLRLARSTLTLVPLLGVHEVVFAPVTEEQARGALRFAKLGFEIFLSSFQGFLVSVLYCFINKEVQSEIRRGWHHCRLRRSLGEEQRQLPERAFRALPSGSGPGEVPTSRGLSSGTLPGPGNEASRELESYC
As to the kind of experiment: cAMP pharmacological functional assay in presence of casein, hGIPR. Type of experiment: cell-based.

A further experiment concerns the target T3, human Gcg receptor (Homo sapiens, UniProt P47871).
T3 construct: expressed in transfected cells; crude membranes
Briefly: [125I]-Glucagon binding (SPA), human Gcg receptor. The method in brief:
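Scintillation counts are taken after membranes and WGA beads incubate and settle for 12 hours at room temperature. Buffer is 25 mM HEPES, pH 7.4, with CaCl2, MgCl2, bacitracin and Tween-20. Ki values, from four-parameter IC50 fits, are geometric means over independent days.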

The target of experiment [3] is T1, human GLP-1R. Briefly: GLP-1R HEK293 cell membrane [35S]GTPγS binding assay. It counts as biochemical. Further details: expressed in transfected cells; host or cells: HEK293 cells expressing human GLP-1R; membranes. The procedure, abridged: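 Agonist-driven Gαs activation read as [35S]GTPγS ([…]) binding to receptor-expressing HEK293 membranes, 30 min at room temperature, pH 7.4. Detection by anti-Gαs immunocapture on scintillation beads; EC50 derived from four-parameter logistic concentration-response fit.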
(In general: GTPγS resists hydrolysis and so accumulates on activated G proteins.)

Like-named read-outs stand apart in the source and are kept apart here. Numbered stars: 1 amine (or outer) side, 2 acyl side, 3 side chain; on linkers, the order of the positions; unused ones are H or OH. Square brackets hold non-standard residues; d marks the D form. Side chains are listed from the residue outwards. Peptide text beside a SMILES is read from it. * marks the point of attachment. C20 diacid = O=C(O)CCCCCCCCCCCCCCCCCCC(=O)*; C18 diacid = O=C(O)CCCCCCCCCCCCCCCCC(=O)*; αMePhe(2-F) = C[C@](N)(Cc1ccccc1F)C(=O)O; γGlu = O=C(O)[C@H](CCC(=O)[*:2])N[*:1]; αMeL = CC(C)C[C@](C)(N)C(=O)O; Orn = NCCC[C@H](N)C(=O)O; AEEA = NCCOCCOCC(=O)O; Aib = CC(C)(N)C(=O)O

For orientation: EC50 means the concentration needed to bring the measured effect to its halfway point. As usually defined, the Ki is a dissociation constant, usually derived from enzyme kinetics or from competition with a known ligand.

T1 sequence (P43220 24-463): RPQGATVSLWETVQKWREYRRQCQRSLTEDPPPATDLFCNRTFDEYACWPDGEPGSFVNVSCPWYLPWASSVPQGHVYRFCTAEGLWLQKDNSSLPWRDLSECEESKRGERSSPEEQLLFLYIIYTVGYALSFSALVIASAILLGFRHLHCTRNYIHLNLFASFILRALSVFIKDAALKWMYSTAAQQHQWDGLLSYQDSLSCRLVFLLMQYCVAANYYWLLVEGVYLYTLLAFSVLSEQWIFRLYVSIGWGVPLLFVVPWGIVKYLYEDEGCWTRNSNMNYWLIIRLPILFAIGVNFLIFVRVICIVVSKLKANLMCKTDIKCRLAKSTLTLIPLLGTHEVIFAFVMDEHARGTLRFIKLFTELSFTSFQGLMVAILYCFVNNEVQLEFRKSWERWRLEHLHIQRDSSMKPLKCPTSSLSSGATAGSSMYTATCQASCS
T3 sequence (P47871 26-477): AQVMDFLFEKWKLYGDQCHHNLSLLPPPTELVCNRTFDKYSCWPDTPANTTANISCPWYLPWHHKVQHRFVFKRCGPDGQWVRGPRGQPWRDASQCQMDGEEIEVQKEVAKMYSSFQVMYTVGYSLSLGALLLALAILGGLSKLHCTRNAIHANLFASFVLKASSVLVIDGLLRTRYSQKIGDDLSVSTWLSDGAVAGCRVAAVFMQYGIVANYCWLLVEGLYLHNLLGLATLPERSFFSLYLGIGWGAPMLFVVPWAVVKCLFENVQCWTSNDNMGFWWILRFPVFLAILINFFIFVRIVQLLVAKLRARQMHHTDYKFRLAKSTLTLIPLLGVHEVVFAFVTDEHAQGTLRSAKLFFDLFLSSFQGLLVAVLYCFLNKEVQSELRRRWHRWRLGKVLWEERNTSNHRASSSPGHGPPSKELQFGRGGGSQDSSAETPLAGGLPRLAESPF

Consider `CC[C@H](C)[C@H](NC(=O)[C@H](CC(C)C)NC(=O)[C@H](Cc1ccc(O)cc1)NC(=O)[C@@H](CCC(=O)O)NC(=O)[C@@H](NC(=O)[C@H](Cc1ccccc1)NC(=O)[C@H](CCC(=O)O)NC(=O)C(C)(C)NC(=O)[C@H](CCC(N)=O)NC(=O)[C@H](C)NC(=O)[C@H](CCCCNC(=O)COCCOCCNC(=O)COCCOCCNC(=O)CC[C@H](NC(=O)CCCCCCCCCCCCCCCCCCC(=O)O)C(=O)O)NC(=O)[C@H](CCC(=O)O)NC(=O)[C@H](CC(=O)O)NC(=O)[C@H](CC(C)C)NC(=O)[C@](C)(CC(C)C)NC(=O)[C@@H](NC(=O)[C@H](CO)NC(=O)[C@H](Cc1ccc(O)cc1)NC(=O)[C@H](CC(=O)O)NC(=O)[C@H](CO)NC(=O)[C@@H](NC(=O)[C@](C)(Cc1ccccc1F)NC(=O)[C@@H](NC(=O)CNC(=O)[C@H](CCC(=O)O)NC(=O)C(C)(C)NC(=O)[C@@H](N)Cc1ccc(O)cc1)[C@@H](C)O)[C@@H](C)O)[C@@H](C)CC)[C@@H](C)CC)C(=O)N[C@@H](CCC(=O)O)C(=O)NCC(=O)NCC(=O)N1CCC[C@H]1C(=O)N[C@@H](CO)C(=O)N[C@@H](CO)C(=O)NCC(=O)N[C@@H](C)C(=O)N1CCC[C@H]1C(=O)N1CCC[C@H]1C(=O)N1CCC[C@H]1C(=O)N[C@@H](CO)C(N)=O` [Example 1] (H-Y[Aib]EGT[αMePhe(2-F)]TSDYSI[αMeL]LDEK([AEEA-AEEA-γGlu-C20 diacid])AQ[Aib]EFI[dE]YLIEGGPSSGAPPPS-NH2), for which the results for the EC50 (at human GLP-1R [1]; in experiment [2]; on human GLP-1R [3]) were 0.005 µM, 0.0356 nM and 0.235 nM, respectively. The “hGLP1R B-Arrestin2 % Top” value on human GLP-1R [1] turned out to be 105%. At human Gcg receptor, this compound showed a Ki of 207 nM.

`CC[C@H](C)[C@H](NC(=O)[C@H](CC(C)C)NC(=O)[C@H](Cc1ccc(O)cc1)NC(=O)[C@@H](CCC(=O)O)NC(=O)[C@@H](NC(=O)[C@H](Cc1ccccc1)NC(=O)[C@H](CCC(=O)O)NC(=O)C(C)(C)NC(=O)[C@H](CCC(N)=O)NC(=O)[C@H](C)NC(=O)[C@H](CCCCNC(=O)COCCOCCNC(=O)COCCOCCNC(=O)CC[C@H](NC(=O)CCCCCCCCCCCCCCCCC(=O)O)C(=O)O)NC(=O)[C@H](CCCN)NC(=O)[C@H](CC(=O)O)NC(=O)[C@H](CC(C)C)NC(=O)[C@](C)(CC(C)C)NC(=O)[C@@H](NC(=O)[C@H](CO)NC(=O)[C@H](Cc1ccc(O)cc1)NC(=O)[C@H](CC(=O)O)NC(=O)[C@H](CO)NC(=O)[C@@H](NC(=O)[C@](C)(Cc1ccccc1F)NC(=O)[C@@H](NC(=O)CNC(=O)[C@H](CCC(=O)O)NC(=O)C(C)(C)NC(=O)[C@@H](N)Cc1ccc(O)cc1)[C@@H](C)O)[C@@H](C)O)[C@@H](C)CC)[C@@H](C)CC)C(=O)N[C@@H](CCC(=O)O)C(=O)NCC(=O)NCC(=O)N1CCC[C@H]1C(=O)N[C@@H](CO)C(=O)N[C@@H](CO)C(=O)NCC(=O)N[C@@H](C)C(=O)N1CCC[C@H]1C(=O)N1CCC[C@H]1C(=O)N1CCC[C@H]1C(=O)N[C@@H](CO)C(N)=O` [Example 2] (H-Y[Aib]EGT[αMePhe(2-F)]TSDYSI[αMeL]LD[Orn]K([AEEA-AEEA-γGlu-C18 diacid])AQ[Aib]EFI[dE]YLIEGGPSSGAPPPS-NH2; N-terminus assumed): the EC50 came to 0.00882 µM at human GLP-1R [1], 0.0339 nM in experiment [2] and 0.642 nM on human GLP-1R [3]. Moreover, the “hGLP1R B-Arrestin2 % Top” value on human GLP-1R [1] is 96.1%. Moreover, on human Gcg receptor, the Ki turned out to be 361 nM.

With `CC[C@H](C)[C@H](NC(=O)[C@H](CC(C)C)NC(=O)[C@H](Cc1ccc(O)cc1)NC(=O)[C@@H](CCC(=O)O)NC(=O)[C@@H](NC(=O)[C@H](Cc1ccccc1)NC(=O)[C@H](CCC(=O)O)NC(=O)C(C)(C)NC(=O)[C@H](CCC(N)=O)NC(=O)[C@H](C)NC(=O)[C@H](CCCCNC(=O)COCCOCCNC(=O)COCCOCCNC(=O)CC[C@H](NC(=O)CCCCCCCCCCCCCCCCCCC(=O)O)C(=O)O)NC(=O)[C@H](CCCN)NC(=O)[C@H](CC(=O)O)NC(=O)[C@H](CC(C)C)NC(=O)[C@](C)(CC(C)C)NC(=O)[C@@H](NC(=O)[C@H](CO)NC(=O)[C@H](Cc1ccc(O)cc1)NC(=O)[C@H](CC(=O)O)NC(=O)[C@H](CO)NC(=O)[C@@H](NC(=O)[C@](C)(Cc1ccccc1F)NC(=O)[C@@H](NC(=O)CNC(=O)[C@H](CCC(=O)O)NC(=O)C(C)(C)NC(=O)[C@@H](N)Cc1ccc(O)cc1)[C@@H](C)O)[C@@H](C)O)[C@@H](C)CC)[C@@H](C)CC)C(=O)N[C@@H](CCC(=O)O)C(=O)NCC(=O)NCC(=O)N1CCC[C@H]1C(=O)N[C@@H](CO)C(=O)N[C@@H](CO)C(=O)NCC(=O)N[C@@H](C)C(=O)N1CCC[C@H]1C(=O)N1CCC[C@H]1C(=O)N1CCC[C@H]1C(=O)N[C@@H](CO)C(N)=O` [Example 3], the EC50 in experiment [2] worked out at 0.0411 nM; on human GLP-1R [3], 0.421 nM. The Ki at human Gcg receptor worked out at 242 nM.

Take `CC[C@H](C)[C@H](NC(=O)[C@H](CC(C)C)NC(=O)[C@](C)(Cc1ccc(O)cc1)NC(=O)[C@@H](CCC(=O)O)NC(=O)[C@@H](NC(=O)[C@H](Cc1ccccc1)NC(=O)[C@H](CCC(=O)O)NC(=O)C(C)(C)NC(=O)[C@H](CCC(N)=O)NC(=O)[C@H](C)NC(=O)[C@H](CCCCNC(=O)COCCOCCNC(=O)COCCOCCNC(=O)CC[C@H](NC(=O)CCCCCCCCCCCCCCCCC(=O)O)C(=O)O)NC(=O)[C@H](CCCN)NC(=O)[C@H](CC(=O)O)NC(=O)[C@H](CC(C)C)NC(=O)[C@](C)(CC(C)C)NC(=O)[C@@H](NC(=O)[C@H](CO)NC(=O)[C@H](Cc1ccncc1)NC(=O)[C@H](CC(=O)O)NC(=O)[C@H](CO)NC(=O)[C@@H](NC(=O)[C@](C)(Cc1ccccc1F)NC(=O)[C@@H](NC(=O)CNC(=O)[C@H](CCC(=O)O)NC(=O)C(C)(C)NC(=O)[C@@H](N)Cc1ccc(O)cc1)[C@@H](C)O)[C@@H](C)O)[C@@H](C)CC)[C@@H](C)CC)C(=O)N[C@@H](CCC(=O)O)C(=O)NCC(=O)NCC(=O)N1CCC[C@H]1C(=O)N[C@@H](CO)C(=O)N[C@@H](CO)C(=O)NCC(=O)N[C@@H](C)C(=O)N1CCC[C@H]1C(=O)N1CCC[C@H]1C(=O)N1CCC[C@H]1C(=O)N[C@@H](CO)C(N)=O` [Example 4]: the EC50 at human GLP-1R [1] amounted to 0.0048 µM; in experiment [2], 0.0272 nM; on human GLP-1R [3], 0.245 nM. Besides, at human GLP-1R [1], the “hGLP1R B-Arrestin2 % Top” value was 92.4%. Moreover, the affinity at human Gcg receptor corresponds to a Ki of 686 nM.

For the compound `CC[C@H](C)[C@H](NC(=O)[C@H](CC(C)C)NC(=O)[C@H](Cc1ccc(O)cc1)NC(=O)[C@H](CCC(=O)O)NC(=O)[C@@H](NC(=O)[C@H](Cc1ccccc1)NC(=O)[C@H](C)NC(=O)C(C)(C)NC(=O)[C@H](CCC(N)=O)NC(=O)[C@H](C)NC(=O)[C@H](CCCCNC(=O)COCCOCCNC(=O)COCCOCCNC(=O)CC[C@H](NC(=O)CCCCCCCCCCCCCCCCCCC(=O)O)C(=O)O)NC(=O)[C@H](CCCCN)NC(=O)[C@H](CC(=O)O)NC(=O)[C@H](CC(C)C)NC(=O)[C@H](CC(C)C)NC(=O)[C@@H](NC(=O)[C@H](CO)NC(=O)[C@H](Cc1ccc(O)cc1)NC(=O)[C@H](CC(=O)O)NC(=O)[C@H](CO)NC(=O)[C@@H](NC(=O)[C@H](Cc1ccccc1)NC(=O)[C@@H](NC(=O)CNC(=O)[C@H](CCC(=O)O)NC(=O)C(C)(C)NC(=O)[C@@H](N)Cc1ccc(O)cc1)[C@@H](C)O)[C@@H](C)O)[C@@H](C)CC)[C@@H](C)CC)C(=O)N[C@@H](C)C(=O)NCC(=O)NCC(=O)N1CCC[C@H]1C(=O)N[C@@H](CO)C(=O)N[C@@H](CO)C(=O)NCC(=O)N[C@@H](C)C(=O)N1CCC[C@H]1C(=O)N1CCC[C@H]1C(=O)N1CCC[C@H]1C(=O)N[C@@H](CO)C(N)=O` [Example 288] (H-Y[Aib]EGTFTSDYSILLDKK([AEEA-AEEA-γGlu-C20 diacid])AQ[Aib]AFIEYLIAGGPSSGAPPPS-NH2; N-terminus assumed), the EC50 on human GLP-1R [1] (CHO-K1 cells, PathHunter β-arrestin-2 recruitment, 0.1% casein, read-out: hGLP1R B-Arrestin2 Rel EC50 uM (SEM, n)) was 0.00674 µM; in experiment [2] (HEK293 cells expressing hGIPR, 0.1% Casein, geometric mean, read-out: hGIPR cAMP Rel EC50 nM (SEM, n)), 0.0732 nM; on human GLP-1R [3] (HEK293 cell membranes expressing human GLP-1R, [35S]GTPγS binding, read-out: hGLP1R GTPgS Rel EC50 nM (SEM, n)), 0.666 nM. Besides, the “hGLP1R B-Arrestin2 % Top” value on human GLP-1R [1] is recorded as 21.3%. Also, the Ki at human Gcg receptor (read-out: hGLcgR Ki, nM (SEM, n)) worked out at 345 nM.
